From US20120070852A1, “ASSAY” (IMPERIAL INNOVATIONS LIMITED, priority 2008, published 2012) come the findings set out here.

The experiment deals with T1, p300 catalytic domain (Homo sapiens, UniProt Q09472).
T1 construct: 40 ng/ml recombinant purified p300 catalytic domain (Millipore); purchased Millipore
T1 sequence (Q09472 1287-1663 limits assumed): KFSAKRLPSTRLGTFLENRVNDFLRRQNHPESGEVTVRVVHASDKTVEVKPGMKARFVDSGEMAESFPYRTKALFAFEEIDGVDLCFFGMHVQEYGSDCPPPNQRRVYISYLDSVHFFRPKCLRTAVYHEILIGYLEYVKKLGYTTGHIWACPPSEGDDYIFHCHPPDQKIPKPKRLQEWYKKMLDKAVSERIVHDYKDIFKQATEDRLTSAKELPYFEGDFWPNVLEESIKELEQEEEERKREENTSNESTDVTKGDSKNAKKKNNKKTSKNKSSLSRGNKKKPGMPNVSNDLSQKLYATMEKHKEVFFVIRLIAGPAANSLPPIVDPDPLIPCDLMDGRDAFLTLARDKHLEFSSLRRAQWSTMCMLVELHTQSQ
Description: QD-FRET p300 HAT assay, inhibitor response. It is filed as biochemical. Particulars: 40 ng/ml p300 catalytic domain, 100 μM acetyl-CoA, 25 μM substrate peptide, 2 hr at 30° C. Here is the method:
p300 assay: In a final volume of 14 μl, 25 μM substrate peptide was incubated with 40 ng/ml recombinant purified p300 catalytic domain (Millipore) in the presence or absence of 100 μM acetyl-CoA (Sigma-Alrich) and different concentrations of anacardic acid in 50 mM Tris-HCl buffer (pH 8.0) containing 0.1% (w/v) BSA (reaction buffer) for 2 hr at 30° C. An aliquot of this reaction mixture was transferred to a 10 μl solution of 50 nM quantum dots and 300 nM Alexa Fluor 647-labelled anti-AcK antibody to achieve a peptide to Qdot ratio of 40:1 and the mixture allowed to incubate for 30 min at room temperature. Fluorescence intensity data were collected with […] on a SpectraMax M5 microplate reader (Molecular Devices) using a 400 nm excitation source.
A synthetic peptide substrate for p300 containing an appending hexahistidine motif was exposed to p300 enzyme in the presence of acetyl-CoA to allow enzymatic acetylation of the peptide. […] This acetylation event was detected by means of an anti-acetyl lysine antibody labelled with a fluorescent dye, which binds selectively to the acetylated lysine residues of the quantum dot-bound peptide. […] This is indicated in the fluorescence spectra as a concomitant decrease in emission at 605 nm and enhanced emission at 670 nm from the Qdot and dye molecules respectively—see FIG. 8.

Take `CCCCCCCCCCCCCCCc1cccc(O)c1C(=O)O` [anacardic acid]: the “effect of serial dilutions of inhibitor on dye-specific emission at 670 nm (energy transfer)” value is reported as “dose-dependent decrease in dye-specific emission at 670 nm”.
